The values that follow come from patent publication US20200129499A1, “COMBINATION OF TASQUINIMOD OR A PHARMACEUTICALLY ACCEPTABLE SALT THEREOF AND A PD-1 AND/OR PD-L1 INHIBITOR, FOR USE AS A MEDICAMENT” (ACTIVE BIOTECH AB, priority 2015, published 2020).

Structures are written as SMILES.

Assay [1] relates to PD-L1 in CD1 1b+ cells. The assay can be described thus: FACS analysis of PD-L1 on tumor CD11b+ myeloid cells. It counts as in vivo, mouse. Here is the method: FIG. 3: Median Fluorescence Intensity (MFI) of PD-L1 in CD1 1b+ cells derived from mice bearing tumors treated with tasquinimod. The mice were treated with 30 mg/kg p.o. of tasquinimod twice daily from day 10 after tumor inoculation. Tasquinimod treatment was carried out for 7 days. This analysis was done by cytometry.
FIG. 4: Treatment with tasquinimod had no effect on established MBT-2 tumor growth and induced an alteration in the profile of PD-1/PD-L1 axis. (A) Growth curves and (B) tumor weight of MBT-2 tumors treated with tasquinimod at 30 mg/kg (oral gavage, twice daily) after randomization at day 11 post tumor-cell inoculation (n=12). Mice were sacrificed. Tumors were harvested, digested and then subjected to surface staining. […] (D) Quantitative data of the Median Fluorescence Intensity of PD-L1 gated on infiltrating myeloid cells CD1 1b+ (*, P<0.05; Mann-Whitney test, n=5 mice per group).
Mice were treated as described in Example 1. […] Cells were analyzed by Fortessa X-20 (BD Biosciences).
Single cell suspensions were prepared from tumors by incubating the tumors cross-cut into small pieces in 8 mg/ml Collagenase IV (Life Technologies) and 0.1% DNase (Sigma-Aldrich) for 45 min at 37° C. […] Data were analyzed using FlowJo software (Tree Star Inc.). […] This procedure yielded predominantly CD1 1b+ cells with purity greater than 80% as assessed by FACS analysis.
(A flow cytometer gives signals particle by particle.)

For assay [2], the system named is CD8+ T cells. The assay can be described thus: Ex vivo T cell proliferation assay with tumor-derived CD11b+ cells. Type of assay: cell-based, mouse. The following applies: CD11b+ from treated established tumors co-cultured 1:1 with T cells, 72 h; FIGS. 8A and B. From the text:
FIG. 7: Combination of tasquinimod with Anti-PD-L1 increases cytotoxic T cell activity. (A) Quantitative data of the percentage of tumor-infiltrating CD8+ cells on day 15 after treatment (n=6). (B) Left panel: Representative images showing immunostaining for granzyme B (brown staining) in tumors from control or treated groups. Original magnification: X200, inset: tumor overview. Scale bar: 5θ μm. Right panel: Quantification of granzyme B positive cells on tumor sections expressed as a percentage of total cells using an antibody against granzyme B (Kruskal-Wallis test; *, P=0.0326). (C) The concentration levels (pg/ml) of the following cytokines: IL-1β, IL-7, IL-1 2(p70) and IL-15 in tumor lysate from each group were quantified using Luminex Technology (n=5). (D) Splenocytes (n=5) from each group were stimulated with PMA/ionomycin in the presence of Brefeldin A. IL-2, TNF-a and IFN-γ production was examined by intracellular staining. […] Asterisks denote statistical significance using one-way ANOVA (*, P<0.05; **, P<0.005). […] P values were calculated based on Kruskal-Wallis test between the different groups (*, P<0.05; **, P<0.005). […] (A) Representative histograms obtained by FACS analysis showing the fluorescence intensity of CFSE-T cells gated on CD8+. […] (C) IFN-γ secretion in the supernatant of the co-culture is measured 72 hours following incubation at 37° C. using Luminex Technology. […]

In assay [3] the test system is human prostate, breast, bladder and colon tumor xenografts. As to conditions: pre-clinical models, Isaacs et al. 2013; cited from earlier work.

For `COc1cccc2c1c(O)c(C(=O)N(C)c1ccc(C(F)(F)F)cc1)c(=O)n2C` [tasquinimod, 4-hydroxy-5-methoxy-N,1-dimethyl-2-oxo-N-[4-(trifluoromethyl)phenyl]-1,2-dihydroquinoline-3-carboxamide], the “median fluorescence intensity of PD-L1 expressed on myeloid cells” value in assay [1] (30 mg/kg p.o. twice daily from day 10 for 7 days, FIG. 3) was “increase”. Also, the “expression of PD-L1 gated on CD1 1b+ cells” value in assay [1] (established MBT-2 tumors, tasquinimod 30 mg/kg, day 15, FIGS. 4C and D) is “increase”. Besides, the “proliferation of stimulated CD8+ T cells ex vivo” value in assay [2] is on record as “limited ability”. In addition, the “efficacy as monotherapeutic agent against tumor xenografts” value in assay [3] is given as “effective as a monotherapeutic agent”.
